# Test results as given in patent US11524968B2, “Heterocyclic compound as a protein kinase inhibitor” (HK inno.N Corporation, priority 2017, dated 2022).
# Biological target: JAK1 (Homo sapiens (Human), UniProt P23458)
# Experiment: Analysis of JAK1 activity inhibition ability (ADP-Glo Kinase Assay)
# Assay type: biochemical
# Conditions: JAK1 enzyme, ADP-Glo luminescence, ATP 250 uM, IRS-itide substrate, 30° C. 40 minutes; read-out: IC50
# In short: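 ADP-Glo luminescence read-out of ADP production, with IC50 taken as the concentration halving JAK1 activity relative to control. Enzyme was incubated 40 min at 30 °C with compound, IRS-itide (40 ng/mL) and ATP (250 uM), concentrations as prepared in pH 7.5 Tris-HCl/MgCl2/BSA/DTT buffer.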
# Sequence of JAK1 (P23458 whole entry): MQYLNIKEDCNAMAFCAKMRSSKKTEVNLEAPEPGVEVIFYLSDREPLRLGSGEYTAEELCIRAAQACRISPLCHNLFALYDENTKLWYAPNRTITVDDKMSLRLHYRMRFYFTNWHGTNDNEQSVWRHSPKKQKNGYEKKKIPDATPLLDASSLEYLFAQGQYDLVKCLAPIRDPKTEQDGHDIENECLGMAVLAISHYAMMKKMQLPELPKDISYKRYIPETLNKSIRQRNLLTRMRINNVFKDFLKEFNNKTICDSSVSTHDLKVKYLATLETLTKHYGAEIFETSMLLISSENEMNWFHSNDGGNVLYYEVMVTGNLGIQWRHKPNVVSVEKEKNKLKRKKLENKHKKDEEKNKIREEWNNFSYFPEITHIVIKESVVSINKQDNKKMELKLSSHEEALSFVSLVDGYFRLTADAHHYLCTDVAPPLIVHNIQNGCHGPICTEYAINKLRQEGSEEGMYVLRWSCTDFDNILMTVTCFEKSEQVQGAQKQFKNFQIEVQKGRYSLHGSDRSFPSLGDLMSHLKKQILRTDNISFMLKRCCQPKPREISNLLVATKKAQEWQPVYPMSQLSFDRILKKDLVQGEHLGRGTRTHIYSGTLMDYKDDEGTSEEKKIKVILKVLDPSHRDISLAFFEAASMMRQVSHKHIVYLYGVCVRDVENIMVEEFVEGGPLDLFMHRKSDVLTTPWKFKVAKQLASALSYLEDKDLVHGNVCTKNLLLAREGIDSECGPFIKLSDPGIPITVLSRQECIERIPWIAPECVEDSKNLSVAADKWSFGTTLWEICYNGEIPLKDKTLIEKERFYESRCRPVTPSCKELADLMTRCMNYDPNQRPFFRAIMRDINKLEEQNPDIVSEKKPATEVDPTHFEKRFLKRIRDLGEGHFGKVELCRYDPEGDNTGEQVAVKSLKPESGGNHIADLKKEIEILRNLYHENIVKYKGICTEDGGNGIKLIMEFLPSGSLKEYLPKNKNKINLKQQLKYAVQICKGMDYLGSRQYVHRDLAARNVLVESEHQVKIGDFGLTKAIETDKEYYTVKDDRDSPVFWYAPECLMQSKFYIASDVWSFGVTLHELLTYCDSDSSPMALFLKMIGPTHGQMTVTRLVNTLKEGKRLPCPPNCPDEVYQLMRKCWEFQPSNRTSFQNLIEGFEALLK
row,Compound,IC50 [nM]
1,"O=C(Nc1cc(C2CC3CCC(C2)N3S(=O)(=O)C2CC2)c2cc[nH]c2n1)C1CC1 (stereo not drawn) [Example 647, N-(4-(8-(cyclopropylsulfonyl)-8-azabicyclo[3.2.1]octan-3-yl)-1H-pyrrolo[2,3-b]pyridin-6-yl)cyclopropanecarboxamide]",> 200
2,"O=C(Nc1cc(-c2ccc(NS(=O)(=O)CC3CCOC3)c(F)c2)c2cc[nH]c2n1)C1CC1 (stereo not drawn) [Example 72, N-(4-(3-fluoro-4-(((tetrahydrofuran-3-yl)methyl)sulfonamido)phenyl)-1H-pyrrolo[2,3-b]pyridin-6-yl)cyclopropanecarboxamide]",< 20
3,"O=C(Nc1cc(-c2ccc(NS(=O)(=O)C3CC3)c(F)c2)c2cc[nH]c2n1)C1CC1 [Example 69, N-(4-(4-(cyclopropanesulfonamido)-3-fluorophenyl)-1H-pyrrolo[2,3-b]pyridin-6-yl)cyclopropanecarboxamide]",< 20
4,"CCC1CC(c2cc(NC(=O)C3CC3)nc3[nH]ccc23)=CCN1C(=O)CC#N (stereo in doubt) [Example 417, (R)—N-(4-(1-(2-cyanoacetyl)-2-ethyl-1,2,3,6-tetrahydropyridin-4-yl)-1H-pyrrolo[2,3-b]pyridin-6-yl)cyclopropanecarboxamide]",< 20
5,"CC1(C)CN(C(=O)CCC#N)CC=C1c1cc(NC(=O)C2CC2)nc2[nH]ccc12 [Example 300, N-(4-(1-(3-cyanopropanoyl)-3,3-dimethyl-1,2,3,6-tetrahydropyridin-4-yl)-1H-pyrrolo[2,3-b]pyridin-6-yl)cyclopropanecarboxamide]",20 to 200
6,"CCS(=O)(=O)Nc1ccc(-c2cc(NC(=O)C3CC3)nc3[nH]ccc23)cc1 [Example 4, N-(4-(4-(ethylsulfonamido)phenyl)-1H-pyrrolo[2,3-b]pyridin-6-yl)cyclopropanecarboxamide]",< 20
7,"CC(C)(C)OC(=O)N1C2CCC1CN(c1cc(NC(=O)C3CC3)nc3[nH]ccc13)C2 [Example 693, tert-butyl 3-(6-(cyclopropanecarboxamido)-1H-pyrrolo[2,3-b]pyridin-4-yl)-3,8-diazabicyclo[3.2.1]octane-8-carboxylate]",20 to 200
8,"CCS(=O)(=O)Nc1ccc(-c2cc(NC(=O)C3CC3)nc3[nH]ccc23)nc1F [Example 149, N-(4-(5-(ethylsulfonamido)-6-fluoropyridin-2-yl)-1H-pyrrolo[2,3-b]pyridin-6-yl)cyclopropanecarboxamide]",> 200
9,"N#CCCCS(=O)(=O)N1CC=C(c2cc(NC(=O)C3CC3)nc3[nH]ccc23)CC1 [Example 170, N-(4-(1-((3-cyanopropyl)sulfonyl)-1,2,3,6-tetrahydropyridin-4-yl)-1H-pyrrolo[2,3-b]pyridin-6-yl)cyclopropanecarboxamide]",20 to 200
10,"C[C@@H]1CN(C(=O)CC2(C#N)CC2)CC=C1c1cc(NC(=O)C2CC2)nc2[nH]ccc12 [Example 415, (S)—N-(4-(1-(2-(1-cyanocyclopropyl)acetyl)-3-methyl-1,2,3,6-tetrahydropyridin-4-yl)-1H-pyrrolo[2,3-b]pyridin-6-yl)cyclopropanecarboxamide]",< 20
11,"CS(=O)(=O)CCS(=O)(=O)Nc1ccc(-c2cc(NC(=O)C3CC3)nc3[nH]ccc23)cc1 [Example 56, N-(4-(4-((2-(methylsulfonyl)ethyl)sulfonamido)phenyl)-1H-pyrrolo[2,3-b]pyridin-6-yl)cyclopropanecarboxamide]",< 20
12,"O=C(Nc1cc(C2=CCN(C(=O)C3CC3(F)F)CC2)c2cc[nH]c2n1)C1CC1 (stereo not drawn) [Example 263, N-(4-(1-(2,2-difluorocyclopropane-1-carbonyl)-1,2,3,6-tetrahydropyridin-4-yl)-1H-pyrrolo[2,3-b]pyridin-6-yl)cyclopropanecarboxamide]",< 20
13,"C[C@@H]1CN(C(=O)c2ccnc(F)c2F)CC=C1c1cc(NC(=O)C2CC2)nc2[nH]ccc12 [Example 396, (S)—N-(4-(1-(2,3-difluoroisonicotinoyl)-3-methyl-1,2,3,6-tetrahydropyridin-4-yl)-1H-pyrrolo[2,3-b]pyridin-6-yl)cyclopropanecarboxamide]",< 20
14,"C[C@H]1CC(Nc2ccc(-c3cc(NC(=O)C4CC4)nc4[nH]ccc34)cc2)CCN1C(=O)Nc1ccc(F)cc1F (stereo partly drawn) [Example 506, (2S)-4-((4-(6-(cyclopropanecarboxamido)-1H-pyrrolo[2,3-b]pyridin-4-yl)phenyl)amino)-N-(2,4-difluorophenyl)-2-methylpiperidine-1-carboxamide]",20 to 200
15,"CCCS(=O)(=O)Nc1ccc(-c2nc(NC(=O)C3CC3)nc3[nH]ccc23)cc1 [Example 190, N-(4-(4-(propylsulfonamido)phenyl)-7H-pyrrolo[2,3-d]pyrimidin-2-yl)cyclopropanecarboxamide]",< 20
16,"COCCN(C)S(=O)(=O)Nc1ccc(-c2cc(NC(=O)C3CC3)nc3[nH]ccc23)cc1 [Example 223, N-(4-(4-((N-(2-methoxyethyl)-N-methylsulfamoyl)amino)phenyl)-1H-pyrrolo[2,3-b]pyridin-6-yl)cyclopropanecarboxamide]",20 to 200
17,"N#CC1(C(=O)N2CC=C(c3cc(NC(=O)C4CC4)nc4[nH]ccc34)CC2)CC1 [Example 259, N-(4-(1-(1-cyanocyclopropane-1-carbonyl)-1,2,3,6-tetrahydropyridin-4-yl)-1H-pyrrolo[2,3-b]pyridin-6-yl)cyclopropanecarboxamide]",> 200

row,Compound,IC50 [nM]
1,"CCCS(=O)(=O)N1CCN(c2nc(NC(=O)C3CC3)nc3[nH]ccc23)CC1 [Example 668, N-(4-(4-(propylsulfonyl)piperazin-1-yl)-7H-pyrrolo[2,3-d]pyrimidin-2-yl)cyclopropanecarboxamide]",> 200
2,"O=C(Nc1cc(-c2cnn(CC3CC3)c2)c2cc[nH]c2n1)C1CC1 [Example 478, N-(4-(1-(cyclopropylmethyl)-1H-pyrazol-4-yl)-1H-pyrrolo[2,3-b]pyridin-6-yl)cyclopropanecarboxamide]",< 20
3,"NC(=O)c1ccc(S(=O)(=O)Nc2ccc(-c3nc(NC(=O)C4CC4)nc4[nH]ccc34)cc2)cc1 [Example 200, 4-(N-(4-(2-(cyclopropanecarboxamido)-7H-pyrrolo[2,3-d]pyrimidin-4-yl)phenyl)sulfamoyl)benzamide]",> 200
4,"O=C(Nc1cc(-c2ccc(OS(=O)(=O)C3CCCCC3)cc2)c2cc[nH]c2n1)C1CC1 [Example 634, 4-(6-(cyclopropanecarboxamido)-1H-pyrrolo[2,3-b]pyridin-4-yl)phenyl cyclohexanesulfonate]",> 200
5,"N#CCCCS(=O)(=O)Nc1ccc(-c2cc(NC(=O)C3CC3)nc3[nH]ccc23)cc1 [Example 52, N-(4-(4-((3-cyanopropyl)sulfonamido)phenyl)-1H-pyrrolo[2,3-b]pyridin-6-yl)cyclopropanecarboxamide]",< 20
6,"Cc1cc(NS(=O)(=O)N(C)CC(F)(F)F)ccc1-c1cc(NC(=O)C2CC2)nc2[nH]ccc12 [Example 228, N-(4-(2-methyl-4-((N-methyl-N-(2,2,2-trifluoroethyl)sulfamoyl)amino)phenyl)-1H-pyrrolo[2,3-b]pyridin-6-yl)cyclopropanecarboxamide]",< 20
7,"N#Cc1cc(NS(=O)(=O)c2ccc(F)c(F)c2)ccc1-c1cc(NC(=O)C2CC2)nc2[nH]ccc12 [Example 146, N-(4-(2-cyano-4-((3,4-difluorophenyl)sulfonamido)phenyl)-1H-pyrrolo[2,3-b]pyridin-6-yl)cyclopropanecarboxamide]",> 200
8,"CC1=C(c2cc(NC(=O)C3CC3)nc3[nH]ccc23)CCN(C(=O)CC#N)C1 [Example 296, N-(4-(1-(2-cyanoacetyl)-5-methyl-1,2,3,6-tetrahydropyridin-4-yl)-1H-pyrrolo[2,3-b]pyridin-6-yl)cyclopropanecarboxamide]",20 to 200
9,"O=C(Nc1cc(C2=CC3CCCC(C2)N3C(=O)c2ccncc2F)c2cc[nH]c2n1)C1CC1 (stereo not drawn) [Example 369, N-(4-(9-(3-fluoroisonicotinoyl)-9-azabicyclo[3.3.1]non-2-en-3-yl)-1H-pyrrolo[2,3-b]pyridin-6-yl)cyclopropanecarboxamide]",20 to 200
10,"N#CCC(=O)N1CC(Nc2ccc(-c3cc(NC(=O)C4CC4)nc4[nH]ccc34)cc2)C1 [Example 515, N-(4-(4-((1-(2-cyanoacetyl)azetidin-3-yl)amino)phenyl)-1H-pyrrolo[2,3-b]pyridin-6-yl)cyclopropanecarboxamide]",20 to 200
11,"N#Cc1ccc(COc2ccc(-c3nc(NC(=O)C4CC4)nc4[nH]cnc34)cc2)cn1 [Example 644, N-(6-(4-((6-cyanopyridin-3-yl)methoxy)phenyl)-9H-purin-2-yl)cyclopropanecarboxamide]",> 200
12,"Cc1cc(C(=O)N(C)CC#N)ccc1-c1cc(NC(=O)C2CC2)nc2[nH]ccc12 [Example 527, N-(cyanomethyl)-4-(6-(cyclopropanecarboxamido)-1H-pyrrolo[2,3-b]pyridin-4-yl)-N,3-dimethylbenzamide]",> 200
13,"O=C(Nc1cc(-c2ccc(CC(=O)N3CC[S+]([O-])CC3)cc2)c2cc[nH]c2n1)C1CC1 [Example 574, N-(4-(4-(2-(1-oxidothiomorpholino)-2-oxoethyl)phenyl)-1H-pyrrolo[2,3-b]pyridin-6-yl)cyclopropanecarboxamide]",20 to 200
14,"CCCS(=O)(=O)Nc1ccc(-c2cc(NC(=O)C3CC3)nc3[nH]ccc23)cc1Cl [Example 63, N-(4-(3-chloro-4-(propylsulfonamido)phenyl)-1H-pyrrolo[2,3-b]pyridin-6-yl)cyclopropanecarboxamide]",20 to 200
15,"CCCCS(=O)(=O)Nc1ccc(-c2cc(NC(=O)C3CC3)nc3[nH]ccc23)cc1CC [Example 127, N-(4-(4-(butylsulfonamido)-3-ethylphenyl)-1H-pyrrolo[2,3-b]pyridin-6-yl)cyclopropanecarboxamide]",20 to 200
16,"N#CCCn1cc(-c2cc(NC(=O)C3CC3)nc3[nH]ccc23)cn1 [Example 477, N-(4-(1-(2-cyanoethyl)-1H-pyrazol-4-yl)-1H-pyrrolo[2,3-b]pyridin-6-yl)cyclopropanecarboxamide]",< 20
